Results from US20250230155A1 (Vanderbilt University, priority 2021, published 2025).
Where two headings read alike, the source gives them in different places.

Molecular target: T1, human mAChR M4 (Homo sapiens, UniProt P08173)
T1 construct: expressed in transfected cells
T1 sequence (P08173 1-479): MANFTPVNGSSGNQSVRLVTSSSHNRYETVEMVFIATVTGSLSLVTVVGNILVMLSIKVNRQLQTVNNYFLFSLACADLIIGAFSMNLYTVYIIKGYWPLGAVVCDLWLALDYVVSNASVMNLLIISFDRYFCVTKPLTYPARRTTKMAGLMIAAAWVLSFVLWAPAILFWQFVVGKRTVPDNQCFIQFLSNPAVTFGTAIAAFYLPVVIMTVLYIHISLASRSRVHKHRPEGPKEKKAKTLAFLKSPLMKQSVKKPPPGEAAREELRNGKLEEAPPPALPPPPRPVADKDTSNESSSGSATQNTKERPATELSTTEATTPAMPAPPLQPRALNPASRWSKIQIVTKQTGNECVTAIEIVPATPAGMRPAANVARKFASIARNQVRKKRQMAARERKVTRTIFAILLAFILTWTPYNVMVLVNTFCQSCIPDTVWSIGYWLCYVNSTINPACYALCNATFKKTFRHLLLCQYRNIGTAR
Experiment: mAChR M4 cell-based functional assay (calcium mobilization, CHO-K1 hM4-Gqi5 cells)
Conditions: for Emax at 30 µM: CHO-K1, % ACh maximum at 30 μM, human M4; for EC50: increase in the EC20 acetylcholine response, CHO-K1 hM4-Gqi5 cells; for Emax: CHO-K1
How it was run: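 Fluorescent calcium read-out (Fluo-4 AM, FDSS, 1 Hz) in hM4-Gqi5 CHO-K1 cells, 11-point 1:3 compound series. Agonism scored on compound addition, PAM activity as increase of the 144 s EC20 acetylcholine response, antagonism as decrease of the 230 s EC80 response; four-parameter logistic fits give EC50 and Emax.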

[1] = positive allosteric modulator activity, read-out: Human M4 EC50

| SMILES | Emax at 30 µM [%] | EC50 [1] [nM] | Emax [%] | EC50 (Human M4 EC50, positive allosteric modulator activity) [nM] |
| --- | --- | --- | --- | --- |
| Cc1nc(Cl)c(C)c(N2CCc3ncc(-c4cncs4)cc3C2)n1 [compound 94, 5-[6-(6-chloro-2,5-dimethyl-pyrimidin-4-yl)-7,8-dihydro-5H-1,6-naphthyridin-3-yl]thiazole] | 91 | 96.9 | – | – |
| Cc1cc(C(=O)N2CC(F)(F)C2)nnc1N1CCc2ncc(-n3cccn3)cc2C1 [Example 533, (6-(3-(1H-pyrazol-1-yl)-7,8-dihydro-1,6-naphthyridin-6(5H)-yl)-5-methylpyridazin-3-yl)(3,3-difluoroazetidin-1-yl)methanone] | 88 | 107 | – | – |
| Cc1c(C#N)nnc(N2CCc3ncc(-c4cnn(CC(C)(C)O)c4)cc3C2)c1C [Example 327, 6-(3-(1-(2-hydroxy-2-methylpropyl)-1H-pyrazol-4-yl)-7,8-dihydro-1,6-naphthyridin-6(5H)-yl)-4,5-dimethylpyridazine-3-carbonitrile] | 68 | 1910 | – | – |
| Cc1cc(C(=O)NCc2cnc3ccccc3c2)cnc1N1CCc2ncc(C(F)(F)F)cc2C1 [Example 446, 5-methyl-N-(quinolin-3-ylmethyl)-6-(3-(trifluoromethyl)-7,8-dihydro-1,6-naphthyridin-6(5H)-yl)nicotinamide] | 87 | 1140 | – | – |
| Cc1cc(C#N)cnc1N1CCc2ncc(N3CCCn4ccnc43)cc2C1 [Example 411, 6-(3-(6,7-dihydroimidazo[1,2-a]pyrimidin-8(5H)-yl)-7,8-dihydro-1,6-naphthyridin-6(5H)-yl)-5-methylnicotinonitrile] | 47 | 2250 | – | – |
| COC(=O)c1cnc(N2CCc3ncc(Br)cc3C2)c(C)c1 [compound 133, methyl 6-(3-bromo-7,8-dihydro-5H-1,6-naphthyridin-6-yl)-5-methyl-pyridine-3-carboxylate] | – | 158 | 100 | – |
| Cc1cc(C#N)nnc1N1CCc2ncc(N3CCOc4ncccc43)cc2C1 [Example 391, 6-(3-(2,3-dihydro-1H-pyrido[2,3-b][1,4]oxazin-1-yl)-7,8-dihydro-1,6-naphthyridin-6(5H)-yl)-5-methylpyridazine-3-carbonitrile] | 89 | 53 | – | – |
| Cc1cc(C(=O)N2CC(C)(O)C2)nnc1N1CCc2ncc(-n3cccn3)cc2C1 [Example 534, (6-(3-(1H-pyrazol-1-yl)-7,8-dihydro-1,6-naphthyridin-6(5H)-yl)-5-methylpyridazin-3-yl)(3-hydroxy-3-methylazetidin-1-yl)methanone] | 88 | 322 | – | – |
| Cc1cnc2c(c1)CN(c1ncc(C#N)cc1C)CC2 [compound 179, 5-methyl-6-(3-methyl-7,8-dihydro-5H-1,6-naphthyridin-6-yl)pyridine-3-carbonitrile] | – | – | 98 | 100 |
| Cc1c(C#N)nnc(N2CCc3ncc(-c4ccn(CC5CC5)n4)cc3C2)c1C [Example 10] | – | 240 | 56 | – |
| Cc1cc(C(=O)NCc2nccs2)cnc1N1CCc2ncc(-c3cccnc3F)cc2C1 [compound 175, 6-[3-(2-fluoro-3-pyridyl)-7,8-dihydro-5H-1,6-naphthyridin-6-yl]-5-methyl-N-(thiazol-2-ylmethyl)pyridine-3-carboxamide] | 89 | 145 | – | – |
| Cc1c(C(=O)NCc2csc3ccccc23)nnc(N2CCc3ncc(C(F)(F)F)cc3C2)c1C [Example 463, N-(benzo[b]thiophen-3-ylmethyl)-4,5-dimethyl-6-(3-(trifluoromethyl)-7,8-dihydro-1,6-naphthyridin-6(5H)-yl)pyridazine-3-carboxamide] | 101 | 422 | – | – |
| Cc1cc(C(=O)N2CC(F)C2)nnc1N1CCc2ncc(-n3cccn3)cc2C1 [Example 568, (6-(3-(1H-pyrazol-1-yl)-7,8-dihydro-1,6-naphthyridin-6(5H)-yl)-5-methylpyridazin-3-yl)(3-fluoroazetidin-1-yl)methanone] | 75 | 161 | – | – |

Further molecules by falling EC50 [1], results first:

| Emax at 30 µM [%] | EC50 [1] [nM] | SMILES | Emax [%] | EC50 (Human M4 EC50, positive allosteric modulator activity) [nM] |
| --- | --- | --- | --- | --- |
| 67 | 1630 | Cc1cc(C(=O)NCc2ccncc2)cnc1N1CCc2ncccc2C1 [compound 61, 6-(7,8-dihydro-5H-1,6-naphthyridin-6-yl)-5-methyl-N-(4-pyridylmethyl)pyridine-3-carboxamide] | – | – |
| 70 | 1070 | Cc1c(C#N)nnc(N2CCc3ncc(-c4cnn(CCN(C)C)c4)cc3C2)c1C [Example 324, 6-(3-(1-(2-(dimethylamino)ethyl)-1H-pyrazol-4-yl)-7,8-dihydro-1,6-naphthyridin-6(5H)-yl)-4,5-dimethylpyridazine-3-carbonitrile] | – | – |
| 93 | 530 | Cc1ccc(-c2cnc3c(c2)CN(c2nnc(C#N)c(C)c2C)CC3)cn1 [Example 298, 4,5-dimethyl-6-(3-(6-methylpyridin-3-yl)-7,8-dihydro-1,6-naphthyridin-6(5H)-yl)pyridazine-3-carbonitrile] | – | – |
| 86 | 370 | Cc1nc(Cl)c(C)c(N2CCc3ncc(Oc4cccnc4)cc3C2)n1 [compound 207, 6-(6-chloro-2,5-dimethyl-pyrimidin-4-yl)-3-(3-pyridyloxy)-7,8-dihydro-5H-1,6-naphthyridine] | – | – |
| 95 | 302 | Cc1cc(C#N)cnc1N1CCc2ncc(-c3cnn(C4CC4)c3)cc2C1 [compound 96, 6-[3-(1-cyclopropylpyrazol-4-yl)-7,8-dihydro-5H-1,6-naphthyridin-6-yl]-5-methyl-pyridine-3-carbonitrile] | – | – |
| 77 | 275 | Cc1nc(C)c(C)c(N2CCc3ncc(Oc4ccc(F)cc4F)cc3C2)n1 [compound 262, 3-(2,4-difluorophenoxy)-6-(2,5,6-trimethylpyrimidin-4-yl)-5,6,7,8-tetrahydro-1,6-naphthyridine] | – | – |
| 91 | 217 | FC(F)(F)c1cnc2c(c1)CN(c1nc(Cl)nc3c1CCC3)CC2 [compound 259, 6-(2-chloro-6,7-dihydro-5H-cyclopenta[d]pyrimidin-4-yl)-3-(trifluoromethyl)-5,6,7,8-tetrahydro-1,6-naphthyridine] | – | – |
| 90 | 169 | Cc1nc(Cl)c(C)c(N2CCc3ncc(-c4cn(C)nc4C)cc3C2)n1 [compound 192, 6-(6-chloro-2,5-dimethyl-pyrimidin-4-yl)-3-(1,3-dimethylpyrazol-4-yl)-7,8-dihydro-5H-1,6-naphthyridine] | – | – |
| 91 | 164 | Cc1cc(C#N)cnc1N1CCc2ncc(Oc3ccc4c(cnn4C)c3)cc2C1 [compound 183, 5-methyl-6-[3-(1-methylindazol-5-yl)oxy-7,8-dihydro-5H-1,6-naphthyridin-6-yl]pyridine-3-carbonitrile] | – | – |
| 88 | 160 | Cc1cc(C#N)cnc1N1CCc2ncc(Oc3cc(F)ccc3F)cc2C1 [Example 351, 6-(3-(2,5-difluorophenoxy)-7,8-dihydro-1,6-naphthyridin-6(5H)-yl)-5-methylnicotinonitrile] | – | – |
| 95 | 158 | Cc1cc(C#N)cnc1N1CCc2ncc(-c3cn(C)nc3C)cc2C1 [compound 103, 6-[3-(1,3-dimethylpyrazol-4-yl)-7,8-dihydro-5H-1,6-naphthyridin-6-yl]-5-methyl-pyridine-3-carbonitrile] | – | – |
| 90 | 141 | Cc1cc(C#N)cnc1N1CCc2ncc(Oc3cccc(F)c3)cc2C1 [compound 181, 6-[3-(3-fluorophenoxy)-7,8-dihydro-5H-1,6-naphthyridin-6-yl]-5-methyl-pyridine-3-carbonitrile] | – | – |
| 69 | 74 | Cc1cc(C(=O)N2CC(F)C2)nnc1N1CCc2ncc(-c3ccnn3C)cc2C1 [Example 563, (3-fluoroazetidin-1-yl)(5-methyl-6-(3-(1-methyl-1H-pyrazol-5-yl)-7,8-dihydro-1,6-naphthyridin-6(5H)-yl)pyridazin-3-yl)methanone] | – | – |
| 101 | 51 | Cc1cc(C(=O)N2CC(F)(F)C2)nnc1N1CCc2ncc(N3CCO[C@H](C)C3)cc2C1 [Example 539, (R)-(3,3-difluoroazetidin-1-yl)(5-methyl-6-(3-(2-methylmorpholino)-7,8-dihydro-1,6-naphthyridin-6(5H)-yl)pyridazin-3-yl)methanone] | – | – |
| 95 | 19 | Cc1cc(C(=O)N2Cc3ccncc3C2)nnc1N1CCc2ncc(N3CCCn4nccc43)cc2C1 [Example 512, (1,3-dihydro-2H-pyrrolo[3,4-c]pyridin-2-yl)(6-(3-(6,7-dihydropyrazolo[1,5-a]pyrimidin-4(5H)-yl)-7,8-dihydro-1,6-naphthyridin-6(5H)-yl)-5-methylpyridazin-3-yl)methanone] | – | – |
| 76 | 12 | Cc1cc(C(=O)N2CC(c3ccncc3)C2)nnc1N1CCc2ncc(N3CCCn4nccc43)cc2C1 [Example 517, (6-(3-(6,7-dihydropyrazolo[1,5-a]pyrimidin-4(5H)-yl)-7,8-dihydro-1,6-naphthyridin-6(5H)-yl)-5-methylpyridazin-3-yl)(3-(pyridin-4-yl)azetidin-1-yl)methanone] | – | – |
